These results are taken from article PMC5848165 (Toxins, 2018).

For series [1], the system named is acetic acid-induced writhing response in mice. Type of series: in vivo, mouse (Kunming). To be noted: counted 30 min after 0.8% acetic acid i.p., control 61, n = 6.
Series [2] relates to TTX-R sodium channels from rat DRG neurons. Put plainly: Whole-cell patch clamp, TTX-R sodium currents in rat DRG neurons. To be noted: 1 µM synthetic JZTX-34; 100 nM TTX in external solution; −10 mV from −80 mV. The series is classed as cell-based, rat (Sprague-Dawley). (In patch-clamp work, channel activity is measured electrically.)
Series [3] has the same test system. To be noted: ref [18]; cited from earlier work. The source says: In this study, the analgesic effect and mechanism of JZTX-34 on pain were investigated.
Another series relates to Nav1.8. Put plainly: Whole-cell patch clamp, Nav1.8 in ND cells. To be noted: 1 µM, −10 mV from −80 mV. Type of series: cell-based, human. An excerpt:
(§1) Nine sodium channel subtypes have been identified and classified as TTX-S (Nav1.1–Nav1.4, Nav1.6, and Nav1.7) or TTX-R types (Nav1.5, Nav1.8, and Nav1.9). […] However, the subtype selectivity of JZTX-34 on the subtype of sodium channel is still unknown. In this work, effects of JZTX-34 on VGSC subtypes (Nav1.1–Nav1.8) were examined. Nav1.1–Nav1.7 were transfected into HEK293 cells and Nav1.8 currents were expressed in ND cells. Inward sodium currents were elicited by a 50 ms depolarizing potential to −10 mV from a holding potential of −80 mV every 5 s. […] No effects on other sodium channel subtypes were found (Nav1.1, Nav1.2, Nav1.4–Nav1.6, and Nav1.8) (Figure S2). […]
(§2) The HEK293T cells were maintained in standard culture conditions (5% CO2 and 37 °C). […] After culturing for 36–72 h, cells with obvious green fluorescence were selected for sodium currents recordings the internal solution for sodium currents recording that contained (in mM) 140 CsF, 5 NaCl, 10 HEPES, 3 Na2-ATP, and 10 EGTA. […]
(§3) Sodium currents were recorded from DRG, HEK293, and ND cells by the whole-cell patch-clamp technique at 25 °C. […] Experiments date were acquired from whole-cell Axon 700B patch clamp amplifier (Molecular Devices, Sunnyvale, CA, USA) and analyzed by the program Clampfit10.0 (Molecular Devices, Sunnyvale, CA, USA) and Sigmaplot. […]

Series [4] concerns chimera #2, Nav1.7 (Nav1.5-DIV-S3-S4). Put plainly: Whole-cell patch clamp, chimera #2 in HEK293 cells. The series is classed as cell-based, human Nav1.7 / rat Nav1.5. To be noted: n = 5, −10 mV from −80 mV.
Text: Many animal toxins alter activation or inactivation of sodium channels by binding to the S3–S4 regions of channels, which are probably the external linkers or voltage sensors of sodium channels. α-Scorpion toxins slow down fast-inactivation of sodium channels by binding to the extracellular linker loop of DIVS3-S4 (neurotoxin site 3). Meanwhile, β-scorpion toxins that interact with DIIS3-S4 linker enhance the activation of sodium channels by trapping DII voltage sensor in an activated state. As Nav1.5 channel is resistant to the inhibition of JZTX-34, we investigated the binding site of JZTX-34 to Nav1.7 by constructing chimeric channels between Nav1.5 and Nav1.7. […]
as §2, §3

The test system of the next series is Nav1.1. Put plainly: Whole-cell patch clamp, Nav1.1 in HEK293 cells. Type of series: cell-based, rat. To be noted: 1 µM, −10 mV from −80 mV.
Text: as §1, §2, §3

The structures appear in SMILES notation. Read-outs that look alike come from different tables or passages of the source. Residues, ends and D or L forms follow the SMILES beside them.

Consider `CC(C)C[C@@H]1NC(=O)[C@H](Cc2c[nH]c3ccccc23)NC(=O)[C@H](CCC(=O)O)NC(=O)[C@H](CCCNC(=N)N)NC(=O)[C@@H](NC(=O)[C@H](C)N)CSSC[C@@H]2NC(=O)[C@@H]3CSSC[C@@H](C(=O)N[C@H](C(=O)N[C@@H](Cc4c[nH]c5ccccc45)C(=O)N[C@@H](CC(=O)O)C(=O)N[C@@H](Cc4c[nH]c5ccccc45)C(=O)N[C@H](C(=O)N[C@H](C(=O)O)C(C)C)[C@@H](C)O)C(C)C)NC(=O)[C@H](Cc4c[nH]cn4)NC(=O)[C@H](Cc4ccc(O)cc4)NC(=O)[C@@H]4CCCN4C(=O)[C@H](Cc4c[nH]c5ccccc45)NC(=O)[C@H](CCCCN)NC(=O)[C@H](CCCCN)NC(=O)[C@H](CCCNC(=N)N)NC(=O)[C@H](CSSC[C@H](NC(=O)CNC(=O)CNC1=O)C(=O)N[C@@H](CO)C(=O)N[C@@H](CCCCN)C(=O)N[C@@H](CC(=O)O)C(=O)N[C@@H](C)C(=O)N[C@@H](CC(=O)O)C(=O)N3)NC(=O)[C@H](CCC(=O)O)NC(=O)[C@H](CC(C)C)NC(=O)[C@H](Cc1c[nH]cn1)NC(=O)[C@H](C)NC2=O` [JZTX-34, Jingzhaotoxin-34] (HELM PEPTIDE1{A.C.R.E.W.L.G.G.C.S.K.D.A.D.C.C.A.H.L.E.C.R.K.K.W.P.Y.H.C.V.W.D.W.T.V}$PEPTIDE1,PEPTIDE1,2:R3-16:R3|PEPTIDE1,PEPTIDE1,9:R3-21:R3|PEPTIDE1,PEPTIDE1,15:R3-29:R3$$$V2.0; N-terminus and C-terminus assumed), for which the number of writhing in series [1] (0.5 mg/kg i.p.) was found to be 38; in series [1] (1 mg/kg i.p.) it was 26; in series [1] (2 mg/kg i.p.) it was 11. Moreover, the “effect on TTX-R sodium currents” value in series [2] was “had no effect on TTX-R sodium currents”. Moreover, the “effect on TTX-R sodium currents (previous work)” value in series [3] is given as “no inhibition on tetrodotoxin-resistant (TTX-R) sodium currents”. Also, in the series on Nav1.8, the “effect on Nav1.8 currents” value is “No effects”. Also, the “inhibition of chimera #2 currents” value in series [4] (1 µM) was found to be 43.6 ± 4.5%; in series [4] (10 µM), 76.3 ± 3.6%. Besides, the “effect on Nav1.1 currents” value with Nav1.1 is “No effects”.
